Assay results from patent US20260215425A1, “NITRIFICATION INHIBITORS” (The University of Melbourne, priority 2022, published 2026).

System: soils B-E
Test: soil incubation, N2O production in soils B-E
Experimental: Soil incubations were performed in three replicates. Each sample consisted of 6 g of sieved soil (2 mm). The soil was air-dried after collection and pre-incubated prior to the experiment for seven days at 50% water holding capacity (WHC). The soil was transferred to a gas chromatography vial (22 mL volume, clear glass, Macherey-Nagel, Germany) and compacted densely to allow 5.5-6.2 cm headspace. The soil in the vials was incubated for a total of 21 days at a constant temperature of 21° C. with an open lid to ensure gas circulation. The control incubations contained ‘untreated’ soil (deionized H2O only) and ‘fertiliser only’ soil ((NH4)2SO4; 50 mg kg^−1 soil) and accompanied each measurement. (NH4)2SO4 was applied as an aqueous solution ([…]) and introduced on the soil surface to mimic field conditions. Three inhibitor solutions were prepared from DMP and 4-MPT at concentrations of 0.5 mol %, 2.5 mol % and 5 mol % of applied fertiliser-N and applied on the soil surface. The soils reached 60% WHC after the treatments had been applied and were kept at that moisture level by periodically adding deionized water to compensate for evaporation losses. At the day of measurement (day 1, 3, 5, 7, 14 and 21 after fertilization) the vials were closed gas-tight with a rubber septum and aluminium lid and opened again after each measurement. The N2O emission was analysed using a gas chromatograph equipped with an electron capture detector and flame ionization detector (GC-ECD/FID; Clarus 580, Perkin Elmer). A linear regression slope was used to calculate N2O—N production rates, F, according to eqn. 5:
where ΔC/Δt represents the change of the N2O concentration over the time interval t in ppbv, V represents the headspace volume in L, M represents the molar mass of N in N2O, m represents the amount of soil in g dry weight, Vm represents the molar volume of ideal gases (22.414 L mol^−1) at 0° C. and 101.325 kPa, corrected for the gas sampler using T0 (273.15 K) and Ta (air temperature in K).

Molecule `Cc1c[nH]nc1C` [DMP, 3,4-dimethylpyrazole, reference compound] has an N2O production (Soil B, 0.5 mol %, Day 1) of 0.318 ± 0.030 μg g^−1 soil h^−1, an N2O production (Soil B, 0.5 mol %, Day 3) of 0.189 ± 0.006 μg g^−1 soil h^−1 and an N2O production (Soil B, 0.5 mol %, Day 5) of 0.151 ± 0.015 μg g^−1 soil h^−1. It also gave an N2O production (Soil B, 0.5 mol %, Day 7) of 0.086 ± 0.043 μg g^−1 soil h^−1, an N2O production (Soil B, 0.5 mol %, Day 14) of 0.136 ± 0.006 μg g^−1 soil h^−1 and an N2O production (Soil B, 0.5 mol %, Day 21) of 0.019 ± 0.019 μg g^−1 soil h^−1. It also gave an N2O production (Soil B, 2.5 mol %, Day 1) of 0.224 ± 0.013 μg g^−1 soil h^−1, an N2O production (Soil B, 2.5 mol %, Day 3) of 0.124 ± 0.008 μg g^−1 soil h^−1 and an N2O production (Soil B, 2.5 mol %, Day 5) of 0.060 ± 0.030 μg g^−1 soil h^−1. For the same molecule, the N2O production (Soil B, 2.5 mol %, Day 7) was 0.045 ± 0.023 μg g^−1 soil h^−1, the N2O production (Soil B, 2.5 mol %, Day 14) was 0.113 ± 0.006 μg g^−1 soil h^−1 and the N2O production (Soil B, 2.5 mol %, Day 21) was 0.127 ± 0.000 μg g^−1 soil h^−1. The N2O production (Soil B, 5 mol %, Day 1) was 0.209 ± 0.054 μg g^−1 soil h^−1, the N2O production (Soil B, 5 mol %, Day 3) was 0.067 ± 0.017 μg g^−1 soil h^−1 and the N2O production (Soil B, 5 mol %, Day 5) was 0.058 ± 0.014 μg g^−1 soil h^−1. It also gave an N2O production (Soil B, 5 mol %, Day 7) of 0.020 ± 0.010 μg g^−1 soil h^−1, an N2O production (Soil B, 5 mol %, Day 14) of 0.052 ± 0.003 μg g^−1 soil h^−1 and an N2O production (Soil B, 5 mol %, Day 21) of 0.037 ± 0.019 μg g^−1 soil h^−1. It also gave an N2O production (Soil C, 0.5 mol %, Day 1) of 0.283 ± 0.008 μg g^−1 soil h^−1, an N2O production (Soil C, 0.5 mol %, Day 3) of 0.183 ± 0.003 μg g^−1 soil h^−1 and an N2O production (Soil C, 0.5 mol %, Day 5) of 0.081 ± 0.041 μg g^−1 soil h^−1. For the same molecule, the N2O production (Soil C, 0.5 mol %, Day 7) was 0.162 ± 0.037 μg g^−1 soil h^−1, the N2O production (Soil C, 0.5 mol %, Day 14) was 0.105 ± 0.007 μg g^−1 soil h^−1 and the N2O production (Soil C, 0.5 mol %, Day 21) was 0.101 ± 0.011 μg g^−1 soil h^−1. The N2O production (Soil C, 2.5 mol %, Day 1) was 0.276 ± 0.006 μg g^−1 soil h^−1, the N2O production (Soil C, 2.5 mol %, Day 3) was 0.161 ± 0.006 μg g^−1 soil h^−1 and the N2O production (Soil C, 2.5 mol %, Day 5) was 0.133 ± 0.006 μg g^−1 soil h^−1. It also gave an N2O production (Soil C, 2.5 mol %, Day 7) of 0.113 ± 0.005 μg g^−1 soil h^−1, an N2O production (Soil C, 2.5 mol %, Day 14) of 0.086 ± 0.006 μg g^−1 soil h^−1 and an N2O production (Soil C, 2.5 mol %, Day 21) of 0.089 ± 0.005 μg g^−1 soil h^−1. For the same molecule, the N2O production (Soil C, 5 mol %, Day 1) was 0.228 ± 0.017 μg g^−1 soil h^−1, the N2O production (Soil C, 5 mol %, Day 3) was 0.125 ± 0.006 μg g^−1 soil h^−1 and the N2O production (Soil C, 5 mol %, Day 5) was 0.099 ± 0.008 μg g^−1 soil h^−1. For the same molecule, the N2O production (Soil C, 5 mol %, Day 7) was 0.098 ± 0.010 μg g^−1 soil h^−1, the N2O production (Soil C, 5 mol %, Day 14) was 0.085 ± 0.009 μg g^−1 soil h^−1 and the N2O production (Soil C, 5 mol %, Day 21) was 0.095 ± 0.000 μg g^−1 soil h^−1. For the same molecule, the N2O production (Soil D, 0.5 mol %, Day 1) was 0.131 ± 0.001 μg g^−1 soil h^−1, the N2O production (Soil D, 0.5 mol %, Day 3) was 0.133 ± 0.003 μg g^−1 soil h^−1 and the N2O production (Soil D, 0.5 mol %, Day 5) was 0.063 ± 0.003 μg g^−1 soil h^−1. For the same molecule, the N2O production (Soil D, 0.5 mol %, Day 7) was 0.112 ± 0.008 μg g^−1 soil h^−1, the N2O production (Soil D, 0.5 mol %, Day 14) was 0.072 ± 0.009 μg g^−1 soil h^−1 and the N2O production (Soil D, 0.5 mol %, Day 21) was 0.098 ± 0.011 μg g^−1 soil h^−1. It also gave an N2O production (Soil D, 2.5 mol %, Day 1) of 0.073 ± 0.037 μg g^−1 soil h^−1, an N2O production (Soil D, 2.5 mol %, Day 3) of 0.120 ± 0.005 μg g^−1 soil h^−1 and an N2O production (Soil D, 2.5 mol %, Day 5) of 0.067 ± 0.006 μg g^−1 soil h^−1. For the same molecule, the N2O production (Soil D, 2.5 mol %, Day 7) was 0.115 ± 0.012 μg g^−1 soil h^−1, the N2O production (Soil D, 2.5 mol %, Day 14) was 0.070 ± 0.006 μg g^−1 soil h^−1 and the N2O production (Soil D, 2.5 mol %, Day 21) was 0.063 ± 0.003 μg g^−1 soil h^−1. It also gave an N2O production (Soil D, 5 mol %, Day 1) of 0.114 ± 0.015 μg g^−1 soil h^−1, an N2O production (Soil D, 5 mol %, Day 3) of 0.112 ± 0.006 μg g^−1 soil h^−1 and an N2O production (Soil D, 5 mol %, Day 5) of 0.039 ± 0.021 μg g^−1 soil h^−1. The N2O production (Soil D, 5 mol %, Day 7) was 0.102 ± 0.014 μg g^−1 soil h^−1, the N2O production (Soil D, 5 mol %, Day 14) was 0.056 ± 0.004 μg g^−1 soil h^−1 and the N2O production (Soil D, 5 mol %, Day 21) was 0.069 ± 0.007 μg g^−1 soil h^−1. For the same molecule, the N2O production (Soil E, 0.5 mol %, Day 1) was 0.053 ± 0.002 μg g^−1 soil h^−1, the N2O production (Soil E, 0.5 mol %, Day 3) was 0.037 ± 0.006 μg g^−1 soil h^−1 and the N2O production (Soil E, 0.5 mol %, Day 5) was 0.015 ± 0.008 μg g^−1 soil h^−1. It also gave an N2O production (Soil E, 0.5 mol %, Day 7) of 0.000 ± 0.000 μg g^−1 soil h^−1, an N2O production (Soil E, 0.5 mol %, Day 14) of 0.000 ± 0.000 μg g^−1 soil h^−1 and an N2O production (Soil E, 0.5 mol %, Day 21) of 0.000 ± 0.000 μg g^−1 soil h^−1. For the same molecule, the N2O production (Soil E, 2.5 mol %, Day 1) was 0.080 ± 0.009 μg g^−1 soil h^−1, the N2O production (Soil E, 2.5 mol %, Day 3) was 0.014 ± 0.014 μg g^−1 soil h^−1 and the N2O production (Soil E, 2.5 mol %, Day 5) was 0.000 ± 0.000 μg g^−1 soil h^−1. The N2O production (Soil E, 2.5 mol %, Day 7) was 0.000 ± 0.000 μg g^−1 soil h^−1, the N2O production (Soil E, 2.5 mol %, Day 14) was 0.008 ± 0.008 μg g^−1 soil h^−1 and the N2O production (Soil E, 2.5 mol %, Day 21) was 0.000 ± 0.000 μg g^−1 soil h^−1. For the same molecule, the N2O production (Soil E, 5 mol %, Day 1) was 0.045 ± 0.011 μg g^−1 soil h^−1, the N2O production (Soil E, 5 mol %, Day 3) was 0.011 ± 0.011 μg g^−1 soil h^−1 and the N2O production (Soil E, 5 mol %, Day 5) was 0.000 ± 0.000 μg g^−1 soil h^−1. The N2O production (Soil E, 5 mol %, Day 7) was 0.000 ± 0.000 μg g^−1 soil h^−1, the N2O production (Soil E, 5 mol %, Day 14) was 0.007 ± 0.007 μg g^−1 soil h^−1 and the N2O production (Soil E, 5 mol %, Day 21) was 0.000 ± 0.000 μg g^−1 soil h^−1. For the same molecule, the N2O production rate (soil B, 0.5 mol % (lowest application rate), day 1) was 0.32 ng g^−1 soil h^−1, the “N2O production rate relative to the uninhibited soil” value (soil B, 0.5 mol %, day 1) was “approximately 50%” and the “N2O production rate relative to that in the absence of the inhibitor” value (soil B, 2.5 mol %) was “approximately 67%”. For the same molecule, the “N2O production rate relative to that in the absence of the inhibitor” value (soil B, 5 mol %) was “approximately 67%”, the “N2O formation rate compared to the uninhibited soil” value (soil C, 0.5 mol % and 2.5 mol %, first two weeks (P>0.05)) was “did not show a significantly reduced N2O formation rate” and the N2O production rate (soil C, highest application rate (5 mol %), day 21) was 0.095 ng g^−1 soil h^−1. The “N2O production rates compared to the uninhibited soil” value (soil D (P>0.05)) was “No significant difference” and the “N2O production beyond day 5” value (soil E, 5 mol %) was “no N2O production was detected”.
